Reference: US6492492B1, “Circularly permuted biotin binding proteins” (University of Washington, priority 1998, dated 2002)
Where “and” joins values, the source holds several entries; their conditions need not be identical. Equal values may be shown once. Read-outs that look alike come from different tables or passages of the source.

Columns and labels:
[1] = Isothermal titration calorimetry of biotin binding; details: for ΔCp: Table 1a, CP51/46 in PB; for ΔCp observed: change in heat capacity of biotin association, linear fit of ΔH° versus temperature
Procedure: Isothermal titration calorimetry (ITC) experiments on wild-type streptavidin were performed on a MicroCal Omega instrument. ITC experiments on CP51/46 were done using a Calorimetry Science Corporation 4200 Calorimeter (Provo, Utah). CP51/46 solutions of 30-40 μM concentration were titrated by the addition of 20×5μL aliquots of 750 μM biotin dissolved in the same buffer as the protein. All ITC experiments were done in either phosphate (50 mM sodium phosphate, 100 mM NaCl, pH 7.75) or Tris (50 mM Tris HCl, 100 mM NaCl, pH 7.75) buffers. Biotin concentrations were determined gravimetrically. Data were analyzed using the proprietary software supplied by Calorimetry Science Corporation with the instrument. Heats of dilution for each injection were subtracted from the reaction heats before data analysis. Nonlinear fitting of the data allowed the number of binding sites (n), association constant (Ka), and binding enthalpy (ΔH°) to be determined assuming noncooperative binding and one site per subunit.

[2] = wild-type, cited from earlier work; for Ka: biotin association, estimated (Green 1990); for ΔH°: 25° C. (Chilkoti 1995)
[3] = Tris buffer, per mol of subunits
[4] = phosphate buffer (PB), 25° C., per mol of subunits

| ΔCp ([1]; per mol of subunits) [cal/mol·°C] | ΔCp observed [1] [cal/mol° C.] | TΔS° ([1]; wild-type, 25° C., from estimated Ka and Gibb's free energy) [kcal/mol] | TΔS° ([1]; wild-type, 25° C., from estimated Ka and Gibb's free energy, listed as wild-type streptavidin) [kcal/mol] | ΔG° ([1]; wild-type, from estimated Ka, per mol of subunits) [kcal/mol] | TΔS° [1, 3] [kcal/mol] | ΔG° [1, 3] [kcal/mol] | ΔH° [1, 3] [kcal/mol] | Ka ([1]; biotin association, Tris buffer pH 7.75, per mol of subunits) | ΔG° [1, 4] [kcal/mol] | Molecule | Ka [2] [M⁻¹] | Ka ([2]; listed as Wild-type streptavidin) [M⁻¹] | Ka ([2]; listed as streptavidin) | ΔH° [2] [kcal/mol] | ΔH° ([2]; listed as wild type streptavidin) [kcal/mol] | TΔS° [1, 4] | ΔH° [1, 4] |
| --- | --- | --- | --- | --- | --- | --- | --- | --- | --- | --- | --- | --- | --- | --- | --- | --- | --- |
| -345 ± 12 | −345 | -6.6 ± 0.4 | -6.6 | -18 |  |  |  |  |  | wild-type: Wild-type core streptavidin (SEQ ID NO:1), comparator for biotin binding [reference compound] | 2.5e+13 | ~2.5e+13 | approximately 2.5×10^13 M^−1 | -24.9 ± 0.4 | -24.9 |  |  |
| -95 ± 29 | −95 |  |  |  | -3.3 ± 0.7 | -10.1 | -13.4 ± 0.7 | (2.47 ± 1.87) × 10^7 M^−1 | -10.0 | CP51/46: Circularly permuted core streptavidin; termini 13 and 139 joined by GGGS linker, loop residues 47-50 removed, new termini Glu51 and Ala46 (SEQ ID NO:4) (protein) MESRYVLTGRYDSAPATDGSGTALGWTVAWKNNYRNAHSATTWSGQYVGGAEARINTQWLLTSGTTEANAWKSTLVEHDTFTKVKPSAASGGGSAEAGITGTWYNQLGSTFIVTAGADGALTGTYESA |  |  |  |  |  | −3.8 (±0.8) kcal/mol and −3.8 ± 0.8 kcal/mol | −13.8 (±0.8) kcal/mol and −13.8 ± 0.8 kcal/mol |
